We go through 1 substance from patent publication US20240335505A1, “PRODUCTS AND METHODS FOR PROMOTING MYOGENESIS” (Ecole Polytechnique Federale de Lausanne (EPFL), priority 2021, published 2024).

One test concerns the target T1, Tead1 (Mus musculus, UniProt P30051).
T1 construct: endogenous in cells; host or cells: C2C12 mouse myoblasts (ATCC CRL-1772)
The test is described as follows: C2C12 myoblast differentiation after disruption of Tead1 function (siRNA or Verteporfin). The test is classed as cell-based. On the procedure:
Cell culture. The C2C12 mouse myoblast cell line was obtained from the American Type Culture Collection (CRL-1772TM). C2C12 and HEK293T cells (CRL-3216™, ATCCR) were cultured in growth medium consisting of Dulbecco's modified Eagle's medium (Gibco, 41966-029), 20% Fetal Bovine Serum (Gibco, 10270-106) and 100 U/mL penicillin and […] streptomycin (Gibco, 15140-122). Differentiation of Cytor/CYTOR overexpressing cells or Tead1 silenced cells were assessed in culture medium. Human skeletal muscle myoblasts (Lonza, Switzerland) were cultured in DMEM/F12 Glutamax (31331093, Gibco) supplemented with 20% FBS (Gibco, 10270-106) and 1% penicillin/streptomycin (15140-122, Gibco). Human skeletal muscle myoblasts from young, old and DMD donors were obtained from the Groupement Hospitalier Est (CBC BioTec, Centre de Ressources Biologique) and cultured in Ham F10 medium (11550043, Thermo Fisher) with 12% FBS (10270-106, Gibco) and 1% penicillin/streptomycin (Gibco, 15140-122). Muscle cell differentiation was achieved by substituting FBS with 2% horse serum (Gibco, 16050-122). For detachment Trypsin-EDTA 0.05% (25300-062, Gibco) was used for all cell lines. All cells were maintained at 37° C. and 5% CO2. Cell lines were continuously tested for mycoplasma contamination.
Cell transfection and transduction. Cell transfections were done using TransiT (Mirus) according to the manufacturer's protocol with a 3:1 ratio of transfection agent to DNA. 24 well plates were transfected with 150 ng DNA, 12 well plates with 300 ng DNA, and 6 well plates with 1 ug DNA. To transfect 25 nM GapmeR or siRNA in C2C12, LipofectamineR RNAiMAX (Thermo Scientific, 13778100) was used following manufacturer's instructions. […]
Immunocytochemistry. […] The myofusion index was calculated as the ratio of nuclei within myotubes to total nuclei. Myotube diameter was measured for 10 randomly chosen myotubes per image. Myotube area was calculated as the total area covered by myotubes. […]

A further test deals with C. elegans. The test is described as follows: Muscle function and morphology in aged C. elegans. The class given is in vivo. The note with it: day 15 of adulthood; verteporfin 10 uM from L4 stage; egl-44 RNAi by maternal treatment (FIG. 19A-F). Here is the method:
Transgenic Caenorhabditis Elegans. C. elegans strains were cultured at 20° C. on nematode growth medium (NGM) agar plates seeded with E. coli strain OP50 unless stated otherwise. Strains used in this study were the wild-type Bristol N2 and COP2054. N2 strain was provided by the Caenorhabditis Genetics Center (University of Minnesota). For RNAi experiments, worms were exposed to egl-44 RNAi or an empty vector control plasmid using maternal treatment to ensure robust knock down of the investigated gene. Verteporfin was dissolved in DMSO, and used at a final concentration of 10 uM. Worms were exposed to verteporfin starting from L4 stage. Verteporfin or DMSO was added to agar before preparing plates. To ensure a permanent exposure to the compound, plates were changed twice a week. The COP2054 worm strain expressing human CYTOR was generated by a custom transgenic service (Knudra Transgenics, Salt Lake City, UT). Briefly, Mosi-mediated Single Copy Insertion (MosSCI) started with the construction of myo3p::CYTOR::tbb2u, where the myo3p promoter and tbb-2 3′-UTR were taken from the N2 genome, and CYTOR was synthesized with codon and intron optimization for C. elegans. […]
C. […] 45 to 60 worms per condition were manually scored for paralysis after poking. Worms that were unable to respond to any repeated stimulation were scored as dead. […]

T1 sequence (P30051 whole entry): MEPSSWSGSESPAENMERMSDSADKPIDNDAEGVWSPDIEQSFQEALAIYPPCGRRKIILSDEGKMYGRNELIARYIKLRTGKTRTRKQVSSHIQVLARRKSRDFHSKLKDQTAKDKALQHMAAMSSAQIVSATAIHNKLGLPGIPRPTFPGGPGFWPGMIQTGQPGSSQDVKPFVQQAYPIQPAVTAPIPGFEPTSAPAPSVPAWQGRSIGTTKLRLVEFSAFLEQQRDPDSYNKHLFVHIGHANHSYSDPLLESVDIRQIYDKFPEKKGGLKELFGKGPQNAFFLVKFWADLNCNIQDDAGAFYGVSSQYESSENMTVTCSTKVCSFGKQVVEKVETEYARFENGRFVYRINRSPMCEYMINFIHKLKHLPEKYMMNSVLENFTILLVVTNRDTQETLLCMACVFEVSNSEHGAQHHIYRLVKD

Verteporfin: on Tead1 (C2C12 myoblasts (FIG. 18B)), the myotube area result is “increase myotube area”. Further, at Tead1 (C2C12 myoblasts (FIG. 18C)), the myofusion result is on record as “increase”. For the same substance, the “expression of type II myosin isoforms” value at Tead1 (C2C12 myoblasts (FIG. 18D)) is reported as “induce the expression of type II”. The “function and morphology of aged C. elegans (movement, speed, activity, paralysis, death)” value in the test on C. elegans is given as “phenocopied the beneficial effect of Cytor”.
